These results are taken from patent publication US20250346883A1, “DENSITY GRADIENT CHEMOSTAT FOR ADAPTED LABORATORY EVOLUTION” (priority 2022, published 2025).

For test [1], the system named is Escherichia coli MG1655 ancestor and MICALE-grown samples. In words: High salinity adaptation analysis (OD600 growth in increasing NaCl). The format is cell-based. On the procedure: (§1) The adaptation analysis (step 205) is a qualitative test to compare the ability to grow in the presence of the stressor between the ancestor and MICALE-grown samples. Turbid broth cultures from isolated colonies were diluted 1:100 in sterile broth with increasing amounts of stressor. These dilutions were vortexed before pipetting 0.2 mL in triplicate onto a 96-well plate. The microplate reader then measured OD600 every 15 minutes over the span of four days while incubating the plate at 37° C. with the plate lid on. […] Referring to FIG. 3B, for each OD600 curve, the maximum rate of growth over a span of 75 minutes is designated the exponential growth rate, u, and the subtracted difference between the maximum and minimum OD600 measurements, AOD, is designated the cell proliferation. The high salinity and chaotropic stress adaptation analyses were completed once whereas the antibiotic analysis was repeated for two total trials. Growth metrics were extrapolated from the growth curves (described below) for numerical comparisons between samples and to fit a logistic dose-response curve of each sample's response in a stressor. For each sample, a logistic curve was fit to the triplicate relative exponential growth rate or relative cell proliferation values across all media types (FIG. 3C). This curve represents a sample's relative response to increasing doses of a stressor, known as a dose-response curve. The value for ED50 is the effective dose of the stressor at which a 50% decrease in the maximal response (100%) is observed.
The samples chosen from the high salinity run were frozen stocks of the PL, SL, and BL samples that had been taken at the end of the run (two weeks) and one SL sample from the first 25 hours (Table 2, below). The samples used in the adaptation analysis had been in media with a NaCl concentration of 60 ppt, and the ancestor was cultured on blank LB media. The samples were diluted into LB media with 5, 45, 60, 75, and 90 ppt NaCl then plated on the 96-well plate.
(§2) To statistically compare growth between samples, two parameters were extracted from the OD600 curves resulting from the adaptation analysis: relative exponential growth rate and relative cell proliferation (FIG. 3B). To find the exponential growth rate, μ, growth curves are normally fit to a standard sigmoidal function, such as the Gompertz model. However, these OD600 curves were too irregular to be well fit with a standard function. Instead, a rolling regression was fitted onto natural log transformed OD600 curves to produce linear regression lines between six measurements at a time (75 total minutes), shifting by 1 measurement, over the curve. The exponential growth rate from the maximum slope obtained by the rolling regression is 0.44 hr^−1. The darker lines on the upper right section of the curve represent where the maximum slope occurs. (FIG. 4).
(§3) The exponential growth rate was determined to be the maximum slope of any of the regression lines, denoted by μstress for growth curves in media with stressor and μblank for that in blank LB media [Equation 1]. Any slope maxima that appeared to be due from anomalies in the data, such as a quick jump in OD600 after biofilm formation, were filtered out. This ensured that the maximum slope occurred during the time that visually represented exponential growth (near the start of the curve). The triplicate μblank calculations were averaged to obtain the values representing that sample's growth in media without stress, μcontrol [Equation 2]. The percent relative exponential growth rate was obtained by dividing each μ by the μcontrol, then multiplying by 100 [Equation 3]. Finally, the three relative exponential growth rate values for each sample and media type were averaged [Equation 4]. […]

Test [2] has the same test system. The test can be described thus: Chaotropic stress adaptation analysis (OD600 growth in increasing MgCl2). The format is cell-based. On the procedure: as §1
For the chaotropic stress run, samples from both two weeks and four weeks into the run were selected for analysis (Table 5, below). The samples, including the ancestor, were cultured in media with 0, 200, and 250 mM MgCl2. The IL samples were not plated on 200 mM MgCl2 plates due to limited resources. The ancestor was grown on plates with the same MgCl2 concentration as the samples to see if the culturing process was causing genetic change significant enough to affect the growth phenotypes observed during the adaptation analysis. Cultures were diluted into media with 0, 200, 250 and 300 mM MgCl2 then pipetted onto the 96-well-plate to start the four-day analysis.
as §2, §3

Test [3] has the same test system. In words: Antibiotic stress adaptation analysis (OD600 growth in increasing ciprofloxacin). The format is cell-based. To be noted: for relative cell proliferation / relative exponential growth rate: 10×MIC. On the procedure: as §1
The samples chosen for the antibiotic-stress adaptation analysis were from the end of the antibiotic stress MICALE run, sampled on the 14th day (Table 7, below). Samples were cultured grown in media with no antibiotic, 0.6 μg/mL ciprofloxacin (10×MIC,) and 15 μg/mL ciprofloxacin ([…]) were transferred into 5 mL of LB broth with the same amount of antibiotic. The only exception is the BL sample was grown in 0.6 μg/mL ciprofloxacin then transferred to LB broth with 15 μg/mL ciprofloxacin. Once turbid, the broth cultures were diluted into media with no antibiotic, 0.6 μg/mL, 6 μg/mL, and 60 μg/mL ciprofloxacin then pipetted onto a 96-well plate and placed in the microplate reader to start the analysis. A portion of the broth cultures used for the analysis were frozen in glycerol. For a repeat trial of the adaptation analysis, these frozen stocks were revived in broth media matching the level of antibiotic in which they had originally been cultured.
as §2
The exponential growth rate was determined to be the maximum slope of any of the regression lines, denoted by μstress for growth curves in media with stressor and μblank for that in blank LB media [Equation 1]. Any slope maxima that appeared to be due from anomalies in the data, such as a quick jump in OD600 after biofilm formation, were filtered out. This ensured that the maximum slope occurred during the time that visually represented exponential growth (near the start of the curve). […]

The subject of a further test is Escherichia coli. To be noted: cited from earlier work.
[4] abbreviates: sample PL-000-Col1, 200 mM MgCl2.

Converted amounts (≈) assume the structure as drawn. “And” between values parts separate entries of the source, which are not always exact repeats. Identical values can stand only once.

Regarding `[Cl-].[Na+]` [NaCl, sodium chloride], the “decrease of exponential growth rate from 60 to 75 ppt NaCl” value is given as 22.9% in test [1] (sample Ancestor), 35.0% in test [1] (sample PL), 28.9% in test [1] (sample SLearly) and 7.8% in test [1] (sample SLfinal). Moreover, the relative growth rate in test [1] (sample Ancestor, 75 ppt NaCl) is 15.5%; in test [1] (sample BL, 60 ppt NaCl) it was 32.5%; in test [1] (sample BL, 75 ppt NaCl), 40.2%; in test [1] (sample BL, 90 ppt NaCl), 42.8%; in test [1] (sample PL, 75 ppt NaCl), 18.3%; in test [1] (sample PL, 90 ppt NaCl), 25.9%. The relative growth rate stood at 3.1% in test [1] (sample SLearly, 75 ppt NaCl); 19.7% in test [1] (sample SLfinal, 75 ppt NaCl); 27.0% in test [1] (sample SLfinal, 90 ppt NaCl). In addition, the average cell proliferation entry in test [1] (sample Ancestor, 90 ppt NaCl (no growth)) was “less than 5%”; in test [1] (sample SLearly, 75 and 90 ppt NaCl (no growth)) it was “less than 5%”; in test [1] (three samples taken at the end of the run (PL, SLfinal, BL), every level of salinity (5-90 ppt NaCl)) it was “over 5%”. For the same compound, the “increase of exponential growth rate from 60 to 75 ppt NaCl” value in test [1] (sample BL) turned out to be 7.7%.

Turning to `[Cl-].[Cl-].[Mg+2]` [MgCl2, magnesium chloride], the “growth in 300 mM MgCl2” value in test [2] (all samples incl. ancestor, 300 mM MgCl2) is “No samples showed signs of growth”. In addition, the “average exponential growth rate (relative)” value was 41.7% in test [2] (sample Anc-000, 200 mM MgCl2); 32.0% in test [2] (sample Anc-200, 200 mM MgCl2); 33.5% in test [2] (sample IL-000, 200 mM MgCl2); 54.0% in test [2] (setting [4]); 26.5% in test [2] (sample PL-200, 200 mM MgCl2); 22.2% in test [2] (sample SL-W2, 200 mM MgCl2). The “average exponential growth rate (relative)” value in test [2] (sample SL-W4, 200 mM MgCl2) is recorded as 42.3%. The relative cell proliferation is 74.0% in test [2] (sample Anc-000, 200 mM MgCl2); 94.0% in test [2] (sample Anc-200, 200 mM MgCl2); 86.5% in test [2] (sample IL-000, 200 mM MgCl2); 130% and 130.3% in test [2] (setting [4]); “less than 5%” in test [2] (sample PL-000-Col2, 200 mM MgCl2 (considered as no growth)); 129.3% in test [2] (sample PL-200, 200 mM MgCl2). Also, the relative cell proliferation is 140.8% in test [2] (sample SL-W2, 200 mM MgCl2) and 102.2% in test [2] (sample SL-W4, 200 mM MgCl2). Besides, the “growth in 250 mM MgCl2” value in test [2] (sample Anc-000, 250 mM MgCl2) is given as “showed signs of growth”; in test [2] (sample PL-000-Col1, 250 mM MgCl2 (one well)), “showed signs of growth”. The “maximum OD600” value in test [2] (sample PL-000-Col1, one triplicate well, 200 mM MgCl2) amounted to 1.479. Besides, the “growth in media with MgCl2” value in test [2] (sample PL-000-Col2, any media with MgCl2) is “could not grow”. Besides, in test [2] (sample SL-W2, 200 mM MgCl2), the “highest average OD600” value was found to be 1.399.

Consider `O=C(O)c1cn(C2CC2)c2cc(N3CCNCC3)c(F)cc2c1=O` [ciprofloxacin], for which, in test [3] (Ancestor, any media with ciprofloxacin (10-1000×MIC), both trials), the “growth in media with ciprofloxacin” value was “did not show signs of growth”. In addition, the “concentration at which cell proliferation value of less than 5% was reached (no growth)” value in test [3] (Trial 1, Ancestor) is recorded as 10 ×MIC; in test [3] (Trial 1, sample BL-15), 1000 ×MIC; in test [3] (Trial 1, sample IL-00) it was 100 ×MIC; in test [3] (Trial 1, sample IL-15-Col1), 1000 ×MIC; in test [3] (Trial 1, sample IL-15-Col2), 1000 ×MIC; in test [3] (Trial 1, sample PL-00) it was 10 ×MIC. Besides, in test [3] (Trial 1, sample PL-0.6), the “concentration at which cell proliferation value of less than 5% was reached (no growth)” value worked out at 100 ×MIC. Also, the average cell proliferation in test [3] (Trial 1, sample IL-00, 100×MIC) is 0.6%; in test [3] (Trial 1, sample IL-00, 1000×MIC (likely evaporation, not growth)) it was 5.3%; in test [3] (Trial 2, samples IL-15-Col1, SL-15 and BL-15, 1000×MIC (growth in all levels tested)), “above 5%”. For the same compound, the relative growth rate is listed as 54.4% in test [3] (Trial 1, sample IL-15-Col1, 100×MIC) and 66.6% in test [3] (Trial 2, sample BL-15, 100×MIC). In addition, the relative cell proliferation in test [3] (Trial 1, sample IL-15-Col2) is reported as 61.5%; in test [3] (Trial 2, sample IL-15-Col2) it was 90.9%. Moreover, the “relative exponential growth rate” value in test [3] (Trial 1, sample IL-15-Col2) is 107.5%; in test [3] (Trial 2, sample BL-15), 97.2%; in test [3] (Trial 2, sample IL-15-Col1), 90.5%; in test [3] (Trial 2, sample IL-15-Col2) it was 101.6%; in test [3] (Trial 2, sample SL-15), 90.6%. Further, the cell proliferation values entry in test [3] (Trial 1, sample SL-15, all concentrations (10-1000×MIC)) is given as “over 5%”. Also, the “concentration at which average cell proliferation lower than 5% was reached” value was found to be 10 ×MIC in test [3] (Trial 2, Anc); 100 ×MIC in test [3] (Trial 2, sample IL-00); 1000 ×MIC in test [3] (Trial 2, sample IL-15-Col2); 100 ×MIC in test [3] (Trial 2, sample PL-00); 100 ×MIC in test [3] (Trial 2, sample PL-0.6). Also, the “growth (OD600 curves) in ciprofloxacin” value in test [3] (samples IL-15-Col1, IL-15-Col2, SL-15 and BL-15, both trials) was “had OD600 curves in ciprofloxacin up to 100×MIC”. The “growth in 100 or 1,000×MIC” value in test [3] (samples PL-00, PL-0.6 and IL-00, overall, both trials) is on record as “could not grow”. Besides, the “MIC, literature's value” in the test with Escherichia coli is 0.05 µg/mL (≈ 0.151 µM).
